Structures can show the parent of a compound that is named as a salt.
Target: T1, Activated human C1s (Homo sapiens, UniProt P09871)
T1 construct: purchased Calbiochem (La Jolla, Calif.)
T1 sequence (P09871 438-688 limits assumed): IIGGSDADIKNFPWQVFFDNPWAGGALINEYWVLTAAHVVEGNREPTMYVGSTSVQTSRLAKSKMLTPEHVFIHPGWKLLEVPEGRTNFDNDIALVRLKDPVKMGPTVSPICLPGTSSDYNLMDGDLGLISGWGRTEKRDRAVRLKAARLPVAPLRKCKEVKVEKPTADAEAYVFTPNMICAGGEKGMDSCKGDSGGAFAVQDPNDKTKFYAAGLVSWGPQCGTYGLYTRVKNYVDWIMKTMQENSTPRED
T1 sequence (P09871 16-437 partner limits assumed): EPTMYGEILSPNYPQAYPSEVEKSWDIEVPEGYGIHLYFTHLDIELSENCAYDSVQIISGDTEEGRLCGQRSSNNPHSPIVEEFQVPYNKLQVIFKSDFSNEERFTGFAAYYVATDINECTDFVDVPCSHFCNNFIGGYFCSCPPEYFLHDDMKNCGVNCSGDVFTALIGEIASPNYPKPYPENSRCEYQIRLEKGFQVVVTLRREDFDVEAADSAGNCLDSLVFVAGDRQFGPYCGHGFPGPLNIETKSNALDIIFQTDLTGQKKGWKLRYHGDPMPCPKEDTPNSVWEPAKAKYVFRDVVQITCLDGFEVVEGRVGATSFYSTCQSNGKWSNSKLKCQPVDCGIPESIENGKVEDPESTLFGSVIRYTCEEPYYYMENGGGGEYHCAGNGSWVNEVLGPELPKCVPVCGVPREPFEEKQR
Test: In vitro inhibition of C1s (Ki determination, C1s-catalyzed hydrolysis of Z-Gly-Arg-S-Bzl, DTNB readout)
Format: biochemical
Settings: substrate Z-Gly-Arg-S-Bzl 45 μM, DTNB 200 μM, C1s 2.3 nM, pH 7.5, 37° C., absorbance at 405 nm
Description: Reagents: All buffer salts were obtained from Sigma Chemical Company (St. Louis, Mo.), and were of the highest purity available. DTNB was purchased from Pierce (Rockford, Ill.). Z-Gly-Arg-S-Bzl was purchased from Enzyme Systems Products (Livermore, Calif.). Activated human C1s was purchased from Calbiochem (La Jolla, Calif.).
Test compounds are prepared as a 10 μM solution in DMSO. Dilutions are prepared in DMSO yielding 7 final concentrations encompassing a 700-fold concentration range.
Reactions were initiated by the addition of a 10 μL aliquot of the enzyme, and the absorbance increase at 405 nm is continuously recorded for 15 minutes in a Molecular Devices plate reader. Final DMSO concentration was 4.3%. […] The ratio of the velocity (rate of change in absorbance as a function of time) for a sample containing no test compound is divided by the velocity of a sample containing test compound, and is plotted as a function of test compound concentration. The data are fit to a linear regression, and the value of the slope of the line calculated. The inverse of the slope is the experimentally determined Ki value.

SMILES	Ki
CSc1sc(C(=N)N)cc1S(=O)(=O)c1cccc(-c2cnc3ccccc3c2)c1 [Example 73, 5-Methylsulfanyl-4-(3-quinolin-3-yl-benzenesulfonyl)-thiophene-2-carboxamidine]	6 to 23 nM
CSc1sc(C(=N)N)cc1S(=O)(=O)c1cccc(-c2cc(C)cc(C)c2)c1 [Example 75, 4-(3′,5′-Dimethyl-biphenyl-3-sulfonyl)-5-methylsulfanyl-thiophene-2-carboxamidine]	6 to 23 nM
CSc1sc(C(=N)N)cc1S(=O)(=O)c1cccc(-c2ccco2)c1 [Example 76, 4-(3-Furan-2-yl-benzenesulfonyl)-5-methylsulfanyl-thiophene-2-carboxamidine]	6 to 23 nM
CSc1sc(C(=N)N)cc1S(=O)(=O)c1cccc(-c2ccc(-c3ccccc3)c(F)c2)c1 [Example 82, 4-(2′-Fluoro-[1,1′;4′,1″]terphenyl-3″-sulfonyl)-5-methylsulfanyl-thiophene-2-carboxamidine]	6 to 23 nM
CSc1sc(C(=N)N)cc1S(=O)(=O)c1cccc(-c2ccc(C#N)cc2)c1 [Example 84, 4-(4′-cyano-biphenyl-3-sulfonyl)-5-methylsulfanyl-thiophene-2-carboxamidine]	6 to 23 nM
CSc1sc(C(=N)N)cc1S(=O)(=O)c1cccc(-c2ccc(N(C)C)cc2)c1 [Example 86, 4-(4′-dimethylamino-biphenyl-3-sulfonyl)-5-methylsulfanyl-thiophene-2-carboxamidine]	6 to 23 nM
C=Cc1ccccc1-c1cccc(S(=O)(=O)c2cc(C(=N)N)sc2SC)c1 [Example 87, 5-methylsulfanyl-4-(2′-vinyl-biphenyl-3-sulfonyl)-thiophene-2-carboxamidine]	6 to 23 nM
CCOc1ccc(-c2cccc(S(=O)(=O)c3cc(C(=N)N)sc3SC)c2)cc1 [Example 88, 4-(4′-ethoxy-biphenyl-3-sulfonyl)-5-methylsulfanyl-thiophene-2-carboxamidine]	6 to 23 nM
CSc1sc(C(=N)N)cc1S(=O)(=O)c1cccc(-c2c(C)noc2C)c1 [Example 89, 4-[3-(3,5-dimethyl-isoxazol-4-yl)-benzenesulfonyl]-5-methylsulfanyl-thiophene-2-carboxamidine]	6 to 23 nM
CSc1sc(C(=N)N)cc1S(=O)(=O)c1cccc(-c2cccc3ccccc23)c1 [Example 91, 5-methylsulfanyl-4-(3-naphthalen-1-yl-benzenesulfonyl)-thiophene-2-carboxamidine]	6 to 23 nM
CSc1sc(C(=N)N)cc1S(=O)(=O)c1cccc(-c2ccc(Cl)s2)c1 [Example 92, 4-[3-(5-Chloro-thiophen-2-yl)-benzenesulfonyl]-5-methylsulfanyl-thiophene-2-carboxamidine]	6 to 23 nM
C=Cc1ccc(-c2cccc(S(=O)(=O)c3cc(C(=N)N)sc3SC)c2)cc1 [Example 94, 5-methylsulfanyl-4-(4′-vinyl-biphenyl-3-sulfonyl)-thiophene-2-carboxamidine]	6 to 23 nM
CSc1sc(C(=N)N)cc1S(=O)(=O)c1cccc(-c2c(C)cccc2C)c1 [Example 96, 4-(2′,6′-dimethyl-biphenyl-3-sulfonyl)-5-methylsulfanyl-thiophene-2-carboxamidine]	6 to 23 nM
CSc1sc(C(=N)N)cc1S(=O)(=O)c1cccc(-c2cccc(C)c2C)c1 [Example 99, 4-(2′,3′-dimethyl-biphenyl-3-sulfonyl)-5-methylsulfanyl-thiophene-2-carboxamidine]	6 to 23 nM
CSc1sc(C(=N)N)cc1S(=O)(=O)c1cccc(-c2cccc(Cl)c2Cl)c1 [Example 100, 4-(2′,3′-dichloro-biphenyl-3-sulfonyl)-5-methylsulfanyl-thiophene-2-carboxamidine]	6 to 23 nM
CSc1sc(C(=N)N)cc1S(=O)(=O)c1cccc(-c2ccccc2N)c1 [Example 107, 4-(2′-amino-biphenyl-3-sulfonyl)-5-methylsulfanyl-thiophene-2-carboxamidine]	6 to 23 nM
CSc1sc(C(=N)N)cc1S(=O)(=O)c1cc(-c2ccccc2C)c2ncn(C)c2c1 [Example 108, 5-methylsulfanyl-4-(3-methyl-7-o-tolyl-3H-benzoimidazole-5-sulfonyl)-thiophene-2-carboxamidine trifluoroacetate]	6 to 23 nM
CSc1sc(C(=N)N)cc1S(=O)(=O)c1cc(-c2ccccc2C)c2nc[nH]c2c1 [Example 110, 5-methylsulfanyl-4-(7-o-tolyl-3H-benzoimidazole-5-sulfonyl)-thiophene-2-carboxamidine trifluoroacetate]	6 to 23 nM

Next, values leading:

Ki	SMILES
6 to 23 nM	COC(=O)c1ccc(-c2cccc(S(=O)(=O)c3cc(C(=N)N)sc3SC)c2)cc1 [Example 74, 3′-(5-Carbamimidoyl-2-methylsulfanyl-thiophene-3-sulfonyl)-biphenyl-4-carboxylic acid methyl ester]
6 to 23 nM	CSc1sc(C(=N)N)cc1S(=O)(=O)c1cccc(-c2cccc([N+](=O)[O-])c2)c1 [Example 78, 5-Methylsulfanyl-4-(3′-nitro-biphenyl-3-sulfonyl)-thiophene-2-carboxamidine]
6 to 23 nM	CSc1sc(C(=N)N)cc1S(=O)(=O)c1cccc(-c2ccc(O)cc2)c1 [Example 79, 4-(4′-Hydroxy-biphenyl-3-sulfonyl)-5-methylsulfanyl-thiophene-2-carboxamidine]
6 to 23 nM	CSc1sc(C(=N)N)cc1S(=O)(=O)c1cccc(-c2ccc(C=O)cc2)c1 [Example 80, 4-(4′-Formyl-biphenyl-3-sulfonyl)-5-methylsulfanyl-thiophene-2-carboxamidine]
6 to 23 nM	CSc1sc(C(=N)N)cc1S(=O)(=O)c1cccc(-c2ccc(F)cc2)c1 [Example 81, 4-(4′-Fluoro-biphenyl-3-sulfonyl)-5-methylsulfanyl-thiophene-2-carboxamidine]
6 to 23 nM	CSc1sc(C(=N)N)cc1S(=O)(=O)c1cccc(-c2ccc(CO)cc2)c1 [Example 83, 4-(4′-hydroxymethyl-biphenyl-3-sulfonyl)-5-methylsulfanyl-thiophene-2-carboxamidine]
6 to 23 nM	CSc1sc(C(=N)N)cc1S(=O)(=O)c1cccc(-c2ccc(C(C)=O)cc2)c1 [Example 85, 4-(4′-acetyl-biphenyl-3-sulfonyl)-5-methylsulfanyl-thiophene-2-carboxamidine]
6 to 23 nM	CSc1sc(C(=N)N)cc1S(=O)(=O)c1cccc(-c2ccccc2C)c1 [Example 90, 4-(2′-methyl-biphenyl-3-sulfonyl)-5-methylsulfanyl-thiophene-2-carboxamidine]
6 to 23 nM	CSc1sc(C(=N)N)cc1S(=O)(=O)c1cccc(-c2ccccc2C=O)c1 [Example 93, 4-(2′-formyl-biphenyl-3-sulfonyl)-5-methylsulfanyl-thiophene-2-carboxamidine]
6 to 23 nM	CCOc1cccc(-c2cccc(S(=O)(=O)c3cc(C(=N)N)sc3SC)c2)c1 [Example 95, 4-(3′-ethoxy-biphenyl-3-sulfonyl)-5-methylsulfanyl-thiophene-2-carboxamidine]
6 to 23 nM	CSc1sc(C(=N)N)cc1S(=O)(=O)c1cccc(-c2cccc(C(C)C)c2)c1 [Example 98, 4-(3′-isopropyl-biphenyl-3-sulfonyl)-5-methylsulfanyl-thiophene-2-carboxamidine]
6 to 23 nM	CSc1sc(C(=N)N)cc1S(=O)(=O)c1cccc(-c2cccc(C(C)=O)c2)c1 [Example 101, 4-(3′-acetyl-biphenyl-3-sulfonyl)-5-methylsulfanyl-thiophene-2-carboxamidine]
6 to 23 nM	CCOC(=O)c1cccc(-c2cccc(S(=O)(=O)c3cc(C(=N)N)sc3SC)c2)c1 [Example 102, 3′-(5-carbamimidoyl-2-methylsulfanyl-thiophene-3-sulfonyl)-biphenyl-3-carboxylic acid ethyl ester]
6 to 23 nM	CSc1sc(C(=N)N)cc1S(=O)(=O)c1cccc(-c2cccc(C(=O)N(C)C)c2)c1 [Example 103, 3′-(5-carbamimidoyl-2-methylsulfanyl-thiophene-3-sulfonyl)-biphenyl-3-carboxylic acid dimethylamide]
6 to 23 nM	CSc1sc(C(=N)N)cc1S(=O)(=O)c1cccc(-c2cccc(C(N)=O)c2)c1 [Example 104, 3′-(5-carbamimidoyl-2-methylsulfanyl-thiophene-3-sulfonyl)-biphenyl-3-carboxylic acid amide]
6 to 23 nM	CSc1sc(C(=N)N)cc1S(=O)(=O)c1cccc(-c2ccc3[nH]cnc3c2)c1 [Example 106, 4-[3-(1H-benzoimidazol-5-yl)-benzenesulfonyl]-5-methylsulfanyl-thiophene-2-carboxamidine]

From patent US7109354B2, “Thiophene amidines, compositions thereof, and methods of treating complement-mediated diseases and conditions” (3-Dimensional Pharmaceuticals, Inc., priority 2002, dated 2006)
